{"source": "ChEMBL document CHEMBL1649146", "about": "“Contribution of the autolysin AtlA to the bactericidal activity of amoxicillin against Enterococcus faecalis JH2-2” (2009)", "key": {"Enterococcus faecalis [1]": {"tested_on": "Enterococcus faecalis", "assay": "Antibacterial activity against Enterococcus faecalis JH2-2 by macrodilution method", "assay_type": "functional"}, "Enterococcus faecalis [2]": {"tested_on": "Enterococcus faecalis", "assay": "Antibacterial activity against atlA-deficient Enterococcus faecalis JH2-2 assessed as decrease in decrease in bacterial count at 2 ug/ml after 24 hrs by macrodilution method", "assay_type": "functional"}, "Enterococcus faecalis [3]": {"tested_on": "Enterococcus faecalis", "assay": "Antibacterial activity against atlA-deficient Enterococcus faecalis JH2-2 assessed as bacterial killing at 2 ug/ml by macrodilution method", "assay_type": "functional, organism-based"}, "Enterococcus faecalis [4]": {"tested_on": "Enterococcus faecalis", "assay": "Ratio of MBC to MIC in atlA-deficient Enterococcus faecalis JH2-2", "assay_type": "functional"}, "Enterococcus faecalis [5]": {"tested_on": "Enterococcus faecalis", "assay": "Antibacterial activity against atlA-deficient Enterococcus faecalis JH2-2 by macrodilution method", "assay_type": "functional"}, "Enterococcus faecalis [6]": {"tested_on": "Enterococcus faecalis", "assay": "Antibacterial activity against Enterococcus faecalis JH2-2 assessed as decrease in decrease in bacterial count at 2 ug/ml after 3 hrs by macrodilution method", "assay_type": "functional"}, "Enterococcus faecalis [7]": {"tested_on": "Enterococcus faecalis", "assay": "Antibacterial activity against atlA-deficient Enterococcus faecalis JH2-2 assessed as decrease in decrease in bacterial count at 2 ug/ml after 6 hrs by macrodilution method", "assay_type": "functional"}, "Enterococcus faecalis [8]": {"tested_on": "Enterococcus faecalis", "assay": "Antibacterial activity against Enterococcus faecalis JH2-2 assessed as bacterial killing at 2 ug/ml by macrodilution method", "assay_type": "functional, organism-based"}, "Enterococcus faecalis [9]": {"tested_on": "Enterococcus faecalis", "assay": "Antibacterial activity against atlA-deficient Enterococcus faecalis JH2-2 assessed as decrease in bacterial count at 2 ug/ml by macrodilution method", "assay_type": "functional", "parameters": "scale not given: the % may be the effect or the level left"}, "Enterococcus faecalis [10]": {"tested_on": "Enterococcus faecalis", "assay": "Antibacterial activity against atlA-deficient Enterococcus faecalis JH2-2 assessed as decrease in decrease in bacterial count at 2 ug/ml after 3 hrs by macrodilution method", "assay_type": "functional"}, "Enterococcus faecalis [11]": {"tested_on": "Enterococcus faecalis", "assay": "Antibacterial activity against atlA-deficient Enterococcus faecalis JH2-2 infected in New Zealand White rabbit assessed as bacterial count per gram vegetation at 50 mg/kg, im TID for 3 days administered 48 hrs post bacterial challenge (reference value: 8.34+/-1.66 log10 CFU/g)", "assay_type": "functional", "settings": "route intramuscular"}, "Enterococcus faecalis [12]": {"tested_on": "Enterococcus faecalis", "assay": "Antibacterial activity against Enterococcus faecalis JH2-2 assessed as decrease in decrease in bacterial count at 2 ug/ml after 24 hrs by macrodilution method", "assay_type": "functional"}, "Enterococcus faecalis [13]": {"tested_on": "Enterococcus faecalis", "assay": "Antibacterial activity against Enterococcus faecalis JH2-2 assessed as decrease in decrease in bacterial count at 2 ug/ml after 6 hrs by macrodilution method", "assay_type": "functional"}, "Enterococcus faecalis [14]": {"tested_on": "Enterococcus faecalis", "assay": "Ratio of MBC to MIC in Enterococcus faecalis JH2-2", "assay_type": "functional"}, "Enterococcus faecalis [15]": {"tested_on": "Enterococcus faecalis", "assay": "Antibacterial activity against Enterococcus faecalis JH2-2 infected in New Zealand White rabbit assessed as bacterial count per gram vegetation at 50 mg/kg, im TID for 3 days administered 48 hrs post bacterial challenge (reference value: 9.40+/-0.62 log10 CFU/g)", "assay_type": "functional", "settings": "route intramuscular"}}, "note": "The source made the active and inactive calls. The calls are words filed in the database; no cut-off is given here.", "data": [{"smiles": "CC1(C)S[C@@H]2[C@H](NC(=O)[C@H](N)c3ccc(O)cc3)C(=O)N2[C@H]1C(=O)O", "note": "[AMOXICILLIN]", "values": [{"measurement": "MBC", "setting": "Enterococcus faecalis [1]", "result": 2, "unit": "µg/mL"}, {"measurement": "MIC", "setting": "Enterococcus faecalis [1]", "result": 0.5, "unit": "µg/mL"}, {"measurement": "log10CFU/ml", "setting": "Enterococcus faecalis [2]", "result": 6.46}, {"measurement": "Activity", "setting": "Enterococcus faecalis [3]", "result": "Active"}, {"measurement": "Ratio", "setting": "Enterococcus faecalis [4]", "result": ">=32"}, {"measurement": "MBC", "setting": "Enterococcus faecalis [5]", "result": "> 1020", "unit": "µg/mL"}, {"measurement": "MIC", "setting": "Enterococcus faecalis [5]", "result": 1, "unit": "µg/mL"}, {"measurement": "log10CFU/ml", "setting": "Enterococcus faecalis [6]", "result": 2.57}, {"measurement": "log10CFU/ml", "setting": "Enterococcus faecalis [7]", "result": 3.93}, {"measurement": "Activity", "setting": "Enterococcus faecalis [8]", "result": "Active"}, {"measurement": "Activity", "setting": "Enterococcus faecalis [9]", "result": ">=99.9%"}, {"measurement": "log10CFU/ml", "setting": "Enterococcus faecalis [10]", "result": 1.5}, {"measurement": "log10CFU/g", "setting": "Enterococcus faecalis [11]", "result": 8.55}, {"measurement": "log10CFU/ml", "setting": "Enterococcus faecalis [12]", "result": 7.82}, {"measurement": "log10CFU/ml", "setting": "Enterococcus faecalis [13]", "result": 5.59}, {"measurement": "Ratio", "setting": "Enterococcus faecalis [14]", "result": 4}, {"measurement": "log10CFU/g", "setting": "Enterococcus faecalis [15]", "result": 7.69}]}]}
